The text below walks through data of patent US8575201B2 (Boehringer Ingelheim International GmbH, priority 2010, dated 2013).

Usually IC50 stands for the concentration that inhibits the measured activity by half.

For experiment [1], the system named is synthesis of LTB4 in human whole blood. Briefly: Human whole blood LTB4 production inhibition assay. To be noted: calcimycin stimulated, read-out: hWB LTB4 IC50. In kind it is cell-based. Summed up:
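Heparinized human whole blood preincubated with compound 15 min at 37 °C, then stimulated with calcimycin (20 μM final) for 30 min at 37 °C. Plasma LTB4 measured after low-speed centrifugation by antibody-based homogeneous time-resolved fluorescence.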

The target in experiment [2] is recombinant human FLAP protein (Homo sapiens (Human), UniProt P20292). Briefly: FLAP binding assay (Scintillation Proximity Assay, displacement of [125I]L-691,831). To be noted: read-out: FLAP SPA IC50. Put shortly: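 Scintillation proximity displacement of an iodinated (125I) FLAP inhibitor by test compounds, using 100,000×g membrane fraction from lysed cells. Final beads 200 μg/well and protein 5 μg/well; plates shaken 2 h before reading.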
Background: In a scintillation proximity assay essentially only radioactivity close to the scintillant gives light.

Where only a bound is given, the exact number is not on record here.

recombinant human FLAP protein, sequence (P20292 whole entry): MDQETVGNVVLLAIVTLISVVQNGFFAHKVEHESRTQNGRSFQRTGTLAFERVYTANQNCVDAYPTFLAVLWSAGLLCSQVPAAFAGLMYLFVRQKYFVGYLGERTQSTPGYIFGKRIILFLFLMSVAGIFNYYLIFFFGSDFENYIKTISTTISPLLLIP

`Nc1ncc(-c2ccc(C3(c4noc(-c5cccnc5)n4)CCC3)cn2)cn1` [Example 73, 5-{5-[1-(5-Pyridin-3-yl-1,2,4-oxadiazol-3-yl)-cyclobutyl]-pyridin-2-yl}-pyrimidin-2-ylamine]: the half-maximal inhibitory concentration (IC50) in experiment [1] is 460 nM; in experiment [2], 25 nM.

On to `Nc1ncc(-c2ccc(C3(c4noc(-c5ccc(S(N)(=O)=O)cc5)n4)CCC3)cn2)cn1` [Example 17, 4-(3-{1-[6-(2-aminopyrimidin-5-yl)pyridin-3-yl]cyclobutyl}-1,2,4-oxadiazol-5-yl)benzenesulfonamide], for which the IC50 was over 5000 nM in experiment [1] and 8.7 nM in experiment [2].

In the case of `Nc1ncc(-c2ccc(C3(c4noc(-c5cc[nH]n5)n4)CCC3)cn2)cn1` [Example 4, 5-(5-{1-[5-(1H-pyrazol-3-yl)-1,2,4-oxadiazol-3-yl]cyclobutyl}pyridin-2-yl)pyrimidin-2-amine], the IC50 in experiment [1] is 430 nM; in experiment [2], 17 nM.

For the molecule `CS(=O)(=O)CCNc1ccc(-c2nc(C3(c4ccc(-c5cnc(N)nc5)nc4)CCC3)no2)cn1` [Example 51, 5-(5-{1-[5-(6-{[2-(methylsulfonyl)ethyl]amino}pyridin-3-yl)-1,2,4-oxadiazol-3-yl]cyclobutyl}pyridin-2-yl)pyrimidin-2-amine], the IC50 in experiment [1] is 150 nM; in experiment [2], 4.8 nM.

On to `Nc1ncc(-c2ccc(C3(c4noc(-c5ccc(NC(CO)CO)nc5)n4)CCC3)cn2)cn1` [Example 33, 2-{[5-(3-{1-[6-(2-aminopyrimidin-5-yl)pyridin-3-yl]cyclobutyl}-1,2,4-oxadiazol-5-yl)pyridin-2-yl]amino}propane-1,3-diol], for which the IC50 was 2600 nM in experiment [1] and 2.2 nM in experiment [2].

With `Nc1ncc(-c2ccc(C3(c4noc(-c5cocn5)n4)CCC3)cn2)cn1` [Example 24, 5-(5-{1-[5-(1,3-oxazol-4-yl)-1,2,4-oxadiazol-3-yl]cyclobutyl}pyridin-2-yl)pyrimidin-2-amine], the IC50 in experiment [1] came out at 1000 nM; in experiment [2], 110 nM.

In the case of `Cc1cccc(-c2nc(C3(c4ccc(-c5cnc(N)nc5)nc4)CCC3)no2)c1` [Example 5, 5-(5-{1-[5-(3-methylphenyl)-1,2,4-oxadiazol-3-yl]cyclobutyl}pyridin-2-yl)pyrimidin-2-amine], the results for the IC50 in experiment [1] and in experiment [2] were 1100 nM and 8.8 nM, respectively.

As for `N#CCn1cc(-c2nc(C3(c4ccc(-c5cnc(N)nc5)nc4)CCC3)no2)cn1` [Example 141, [4-(3-{1-[6-(2-aminopyrimidin-5-yl)pyridin-3-yl]cyclobutyl}-1,2,4-oxadiazol-5-yl)-1H-pyrazol-1-yl]acetonitrile], the results for the IC50 in experiment [1] and in experiment [2] were 85 nM and 11 nM, respectively.

Consider `Cn1cc(-c2nc(C3(c4ccc(-c5cnc(N)nc5)nc4)CCC3)no2)c(C(F)(F)F)n1` [Example 20, 5-[5-(1-{5-[1-methyl-3-(trifluoromethyl)-1H-pyrazol-4-yl]-1,2,4-oxadiazol-3-yl}cyclobutyl)pyridin-2-yl]pyrimidin-2-amine], for which the values for the IC50 in experiment [1] and in experiment [2] were 530 nM and 9.2 nM, respectively.

Take `Cc1ccc(-c2nc(C3(c4ccc(-c5cnc(N)nc5)nc4)CCC3)no2)cn1` [Example 74, 5-(5-{1-[5-(6-methylpyridin-3-yl)-1,2,4-oxadiazol-3-yl]cyclobutyl}pyridin-2-yl)pyrimidin-2-amine]: the IC50 in experiment [1] was 210 nM; in experiment [2], 4.5 nM.

Turning to `Nc1ncc(-c2ccc(C3(c4noc(-c5ccncn5)n4)CCC3)cn2)cn1` [Example 92, 5-(5-{1-[5-(pyrimidin-4-yl)-1,2,4-oxadiazol-3-yl]cyclobutyl}pyridin-2-yl)pyrimidin-2-amine], the IC50 worked out at 2200 nM in experiment [1] and 130 nM in experiment [2].

With `Nc1ncc(-c2ccc(C3(c4noc(-c5cnn(CCF)c5)n4)CCC3)cn2)cn1` [Example 67, 5-[5-(1-{5-[1-(2-fluoroethyl)-1H-pyrazol-4-yl]-1,2,4-oxadiazol-3-yl}cyclobutyl)pyridin-2-yl]pyrimidin-2-amine], the IC50 worked out at 69 nM in experiment [1] and 9.5 nM in experiment [2].

As for `CC(C)(C#N)n1cc(-c2nc(C3(c4ccc(-c5cnc(N)nc5)nc4)CCC3)no2)cn1` [Example 151, 2-[4-(3-{1-[6-(2-amino-pyrimidin-5-yl)-pyridin-3-yl]-cyclobutyl}-[1,2,4]oxadiazol-5-yl)-pyrazol-1-yl]-2-methyl-propionitrile], the IC50 amounted to 94 nM in experiment [1] and 18 nM in experiment [2].

As to `CN(C)c1ncccc1-c1nc(C2(c3ccc(-c4cnc(N)nc4)nc3)CCC2)no1` [Example 126, 5-[5-(1-{5-[2-(dimethylamino)pyridin-3-yl]-1,2,4-oxadiazol-3-yl}cyclobutyl)pyridin-2-yl]pyrimidin-2-amine], the IC50 is over 5000 nM in experiment [1] and 34 nM in experiment [2].

For the molecule `CN(C)c1ccc(-c2nc(C3(c4ccc(-c5cnc(N)nc5)nc4)CCC3)no2)cn1` [Example 110, 5-[5-(1-{5-[6-(dimethylamino)pyridin-3-yl]-1,2,4-oxadiazol-3-yl}cyclobutyl)pyridin-2-yl]pyrimidin-2-amine], the IC50 in experiment [1] stood at 310 nM; in experiment [2], 2.4 nM.

Regarding `CC(C)(CO)n1cc(-c2nc(C3(c4ccc(-c5cnc(N)nc5)nc4)CCC3)no2)cn1` [Example 30, 2-[4-(3-{1-[6-(2-aminopyrimidin-5-yl)pyridin-3-yl]cyclobutyl}-1,2,4-oxadiazol-5-yl)-1H-pyrazol-1-yl]-2-methylpropan-1-ol], the IC50 in experiment [1] was 400 nM; in experiment [2], 33 nM.

Consider `Cn1ccc(-c2nc(C3(c4ccc(-c5cnc(N)nc5)nc4)CCC3)no2)n1` [Example 127, 5-(5-{1-[5-(1-methyl-1H-pyrazol-3-yl)-1,2,4-oxadiazol-3-yl]cyclobutyl}pyridin-2-yl)pyrimidin-2-amine], for which the IC50 worked out at 640 nM in experiment [1] and 40 nM in experiment [2].

With `Cc1cnc(-c2nc(C3(c4ccc(-c5cnc(N)nc5)nc4)CCC3)no2)cn1` [Example 130, 5-(5-{1-[5-(5-methylpyrazin-2-yl)-1,2,4-oxadiazol-3-yl]cyclobutyl}pyridin-2-yl)pyrimidin-2-amine], the IC50 in experiment [1] stood at 350 nM; in experiment [2] it was 26 nM.

`Cc1ncccc1-c1nc(C2(c3ccc(-c4cnc(N)nc4)nc3)CCC2)no1` [Example 85, 5-(5-{1-[5-(2-methylpyridin-3-yl)-1,2,4-oxadiazol-3-yl]cyclobutyl}pyridin-2-yl)pyrimidin-2-amine]: the concentration for half-maximal inhibition (IC50) in experiment [1] was 1000 nM; in experiment [2], 21 nM.

For `Nc1ncc(-c2ccc(C3(c4noc(-c5cnccn5)n4)CCC3)cn2)cn1` [Example 129, 5-(5-{1-[5-(pyrazin-2-yl)-1,2,4-oxadiazol-3-yl]cyclobutyl}pyridin-2-yl)pyrimidin-2-amine], the IC50 was 630 nM in experiment [1] and 47 nM in experiment [2].

Regarding `CN(C(=O)Cn1cc(-c2nc(C3(c4ccc(-c5cnc(N)nc5)nc4)CCC3)no2)cn1)C1CC1` [Example 160, 2-[4-(3-{1-[6-(2-amino-pyrimidin-5-yl)-pyridin-3-yl]-cyclobutyl}-[1,2,4]oxadiazol-5-yl)-pyrazol-1-yl]-N-cyclopropyl-N-methyl-acetamide], the IC50 is 540 nM in experiment [1] and 95 nM in experiment [2].

With `Cc1n[nH]c(C)c1-c1nc(C2(c3ccc(-c4cnc(N)nc4)nc3)CCC2)no1` [Example 103, 5-(5-{1-[5-(3,5-dimethyl-1H-pyrazol-4-yl)-1,2,4-oxadiazol-3-yl]cyclobutyl}pyridin-2-yl)pyrimidin-2-amine], the IC50 in experiment [1] is 1000 nM; in experiment [2] it was 14 nM.

In the case of `CN(CCO)c1ccc(-c2nc(C3(c4ccc(-c5cnc(N)nc5)nc4)CCC3)no2)cn1` [Example 116, 2-{[5-(3-{1-[6-(2-aminopyrimidin-5-yl)pyridin-3-yl]cyclobutyl}-1,2,4-oxadiazol-5-yl)pyridin-2-yl](methyl)amino}ethanol], the IC50 in experiment [1] was found to be 140 nM; in experiment [2], 4.3 nM.

With `Nc1ncc(-c2ccc(C3(c4noc(-c5cccc(S(N)(=O)=O)c5)n4)CCC3)cn2)cn1` [Example 19, 3-(3-{1-[6-(2-aminopyrimidin-5-yl)pyridin-3-yl]cyclobutyl}-1,2,4-oxadiazol-5-yl)benzenesulfonamide], the IC50 in experiment [1] was over 5000 nM; in experiment [2], 58 nM.

In the case of `CC(C)(C(=O)O)n1cc(-c2nc(C3(c4ccc(-c5cnc(N)nc5)nc4)CCC3)no2)cn1` [Example 65, 2-[4-(3-{1-[6-(2-aminopyrimidin-5-yl)pyridin-3-yl]cyclobutyl}-1,2,4-oxadiazol-5-yl)-1H-pyrazol-1-yl]-2-methylpropanoic acid], the IC50 in experiment [1] was over 5000 nM; in experiment [2], 590 nM.

With `Cc1n[nH]cc1-c1nc(C2(c3ccc(-c4cnc(N)nc4)nc3)CCC2)no1` [Example 78, 5-(5-{1-[5-(3-methyl-1H-pyrazol-4-yl)-1,2,4-oxadiazol-3-yl]cyclobutyl}pyridin-2-yl)pyrimidin-2-amine], the IC50 was 220 nM in experiment [1] and 4.7 nM in experiment [2].

Regarding `Nc1ncc(-c2ccc(C3(c4noc(N5CCC(O)CC5)n4)CCC3)cn2)cn1` [Example 154, 1-(3-{1-[6-(2-Amino-pyrimidin-5-yl)-pyridin-3-yl]-cyclobutyl}-[1,2,4]oxadiazol-5-yl)-piperidin-4-ol], the IC50 in experiment [1] was 590 nM; in experiment [2], 170 nM.

On to `Nc1ncc(-c2ccc(C3(c4noc(-c5ccc(N6CCN(CCC(=O)O)CC6)nc5)n4)CCC3)cn2)cn1` [Example 53, 3-{4-[5-(3-{1-[6-(2-aminopyrimidin-5-yl)pyridin-3-yl]cyclobutyl}-1,2,4-oxadiazol-5-yl)pyridin-2-yl]piperazin-1-yl}propanoic acid], for which the IC50 in experiment [1] was 2600 nM; in experiment [2], 2.6 nM.
